From US7238677B2, “Prevention of urogenital infections” (Kimberly-Clark Worldwide, Inc., priority 2003, dated 2007) come the findings set out here.

Common to all, as to assay type: cell-based
One test relates to E. coli, ATCC 53505. The test can be described thus: Effect on E. coli growth (optical density at 540 nm). The settings on record: OD 540 nm at 1, 2 and 3 hours. As to the method: To test whether hyaluronic acid could influence cellular growth, E. coli, ATCC 53505 cells were cultured overnight in trypticase soy broth. The culture was then diluted to an optical density of 0.1 and hyaluronic acid (1 mg/ml or 5 mg/ml) in PBS was incubated with the E. coli suspension. A control comprising a suspension E. coli treated with PBS was also prepared. The test and control cells were incubated at 37° C. with shaking and the optical density of the bacterial suspensions at 540 nm was measured at 1, 2 and 3 hours after addition of the hyaluronic acid or PBS.
(§1) All the data are expressed as mean±SEM and were analyzed by one-way Analysis of Variance (ANOVA) followed by a Tukey-Kramer Multiple Comparisons Test. Differences were considered significant at the level of p<0.05.

Test [1] relates to E. coli with P family pili, ATCC 53505. The test can be described thus: E. coli adhesion to A431 epithelial cells. The note with it: A431 cells pre-incubated 30 minutes, OD 540 nm of 2 hr culture of bound bacteria. As to the method:
Cultured A431 cells were used as a vaginal epithelial model. A431 cells were obtained from American Cell Type Culture Collection, catalog # CRL-1555. A monolayer of A431 cells was grown on a 24-well tissue culture plate until confluent.
E. coli with P family pili, ATCC 53505, were cultured in trypticase soy broth (TSB) overnight. Phosphate buffered saline (PBS, control) or hyaluronic acid (Sigma catalog # H 1876) solutions at a concentration of 1 mg/ml or 5 mg/ml in PBS was added to the A431 cell layers, using a volume of 1.2 ml/well. After incubation for 30 minutes at 37° C., 0.7 ml of solution was removed from the wells and 0.5 ml of the bacteria suspension was added. […] After 60 minutes, the supernatant in each well was removed and the wells were rinsed thoroughly with PBS to remove all non-bound bacteria. Trypticase soy broth was then added to wells, and the whole system was incubated at 37° C. with shaking for 2 hours. Bacterial concentration was measured by the detection of optical density of bacterial suspension at 540 nm.
as §1

Test [2] deals with Candida albicans, ATCC 10231. The test is described as follows: Adherence of Candida albicans to A431 cells. The note with it: for number of Candida albicans adhering to A431 cells: A431 cells pre-incubated 30 minutes, colony count. As to the method:
A culture of Candida albicans, ATCC 10231, was started as a frozen bead in peptone/glucose culture medium and incubated at 37° C. with shaking for three days before the experiment. A monolayer of A431 cells, ATCC CRL-1555, was grown on a 24-well tissue culture plate until confluent. Hyaluronic acid at concentration of 1 mg/ml PBS or 5 mg/ml PBS was added to the wells (1.2 ml/well), and the plates were incubated for 30 minutes at 35° C. A control plate of confluent A431 cells was also prepared that received 1.2 ml/well PBS and no hyaluronic acid. After the 30 min incubation, 0.7 ml of solution was removed from the wells and 0.5 ml of yeast suspension (1×10^6 cfu/ml) was added. After 2 hours of incubation, the supernatant was removed from the wells and the wells were rinsed thoroughly with PBS to remove all non-bound yeast. Then, 0.2 ml of 0.25% trypsin/EDTA was added to each well and the plates were incubated at 35° C. for 15 min. Trypsinization was stopped by adding 1 ml of 10% fetal bovine serum in culture medium. The trypsinized cell/yeast suspension was centrifuged and re-suspended in 1 ml of the medium. Serial dilutions of the Candida albicans/A431 cell suspension were plated on Sabouraud's dextrose agar plates and incubated overnight at 35° C. The number of colonies on each plate was counted and the number of yeast attached to the cells in each well was calculated.
All the data are expressed as mean ±SEM and were analyzed by one-way Analysis of Variance (ANOVA) followed by a Tukey-Kramer Multiple Comparisons Test. Differences were considered significant at the level of p<0.05.

As for hyaluronic acid, the “effect on bacterial growth” value was “neither of the hyaluronic acid solutions had any effect on bacterial growth” in the test on E. coli, ATCC 53505 (1 mg/ml in PBS) and “neither of the hyaluronic acid solutions had any effect on bacterial growth” with E. coli, ATCC 53505 (5 mg/ml in PBS). Moreover, the results for the “number of E. coli attached to A431 cells” value in test [1] (1 mg/ml in PBS) and in test [1] (5 mg/ml in PBS) were “lesser effect” and “significantly inhibited”, respectively. Also, the entries for the “number of Candida albicans adhering to A431 cells” value in test [2] (1 mg/ml in PBS) and in test [2] (5 mg/ml in PBS) were “the effect was not so significant” and “significantly inhibited”, respectively. Further, the “number of yeast colonies from treated A431 cells (FIG. 4)” value in test [2] (versus PBS-treated A431 cells, concentration not given) is given as “fewer yeast colonies”.
